The supplement of paper PMC11208160

Assay: recombinant UMI read abundance after kanamycin selection (control-corrected) (log10(CPM+1)); higher = more efficient recombination; extreme values may be limits of the assay; sequences stand for … in AGTGCAGAGAAAATCGGCCAGTTTTCTCTGCCTGCAGTCCGCATGCCGTGGGACCCCTTGGGTTCTAACCTGTTGCCTAGATTTATGCAGCGGACTGCCTTTCTCCCAAAGTGATAAACCGG…AGGTTGGTTTCACT; site = the 11-nt donor
Method in brief: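 Values are reported as log10(CPM+1), obtained by converting sequencing counts to CPM, averaging replicates and scaling by control-derived factors. The counts came from recombinant UMIs amplified by PCR across the donor–target junction. These UMIs came from a pooled Escherichia coli screen of donor and donor-binding-loop pairs for the IS621 bridge recombinase, plated with IPTG (0.07 mM) plus kanamycin or left unselected, in two replicates each.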
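Further: IS621 bridge recombinase in Escherichia coli cells against a fixed T5 target plasmid.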

Q: Which “recombinant UMI read abundance (log10)” value does the source give for “CACGGCCCATGGACCGGTTTTCCCGGTAATCCGTATTTGTA (site CACGGCCCTAA)” here?
A: 0.00609

Q: For “CGTGGAACATGGACCGGTTTTCCCGGTAATCCGTATTTGCG (site CGTGGAACTCG)”, which “recombinant UMI read abundance (log10)” value is on record?
A: 2.05

Q: Which “recombinant UMI read abundance (log10)” value does the source give for “ACTAGTGCATGGACCGGTTTTCCCGGTAATCCGTATTTGGT (site CCTAGTGCTAC)” here?
A: 0.821

Q: With “CGATCATCATGGACCGGTTTTCCCGGTAATCCGTATTTGAC (site CGATCATCTAG)” as the sequence, how does the “recombinant UMI read abundance (log10)” value read?
A: 0

Q: With “CCGTCGCCATGGACCGGTTTTCCCGGTAATCCGTATTTGAT (site CCGTCGCCTAT)” as the sequence, how does the “recombinant UMI read abundance (log10)” value read?
A: 0.00407

Q: With “AACCGGCCATGGACCGGTTTTCCCGGTAATCCGTATTTGAT (site AACCGGCCTAT)” as the sequence, how does the “recombinant UMI read abundance (log10)” value read?
A: 0.016

Q: Which “recombinant UMI read abundance (log10)” value does the source give for “GGTCCACCATGGACCGGTTTTCCCGGTAATCCGTATTTGTA (site GGTCCAACTTA)” here?
A: 0.0242

Q: For “GATTTGACATGGACCGGTTTTCCCGGTAATCCGTATTTGAC (site GATTGGACTGT)”, which “recombinant UMI read abundance (log10)” value is on record?
A: 0

Q: With “ACCCCATCATGGACCGGTTTTCCCGGTAATCCGTATTTGAT (site ACCCCATCTAT)” as the sequence, how does the “recombinant UMI read abundance (log10)” value read?
A: 1.23

Q: With “ATAAGGCCATGGACCGGTTTTCCCGGTAATCCGTATTTGAC (site TTAAGGCCTGT)” as the sequence, how does the “recombinant UMI read abundance (log10)” value read?
A: 0

Q: Which “recombinant UMI read abundance (log10)” value does the source give for “GGCAAGCCATGGACCGGTTTTCCCGGTAATCCGTATTTGAA (site GGCAACCCTTT)” here?
A: 0

Q: With “TATTTTGCATGGACCGGTTTTCCCGGTAATCCGTATTTGTG (site TATTTAGCTCA)” as the sequence, how does the “recombinant UMI read abundance (log10)” value read?
A: 0.00468

Q: With “CTAAGACCATGGACCGGTTTTCCCGGTAATCCGTATTTGCG (site CTAAGACCTCG)” as the sequence, how does the “recombinant UMI read abundance (log10)” value read?
A: 0.0114

Q: For “AACTGGACATGGACCGGTTTTCCCGGTAATCCGTATTTGGG (site AACTGGACTCC)”, which “recombinant UMI read abundance (log10)” value is on record?
A: 0.0254

Q: Which “recombinant UMI read abundance (log10)” value does the source give for “TCCCTTCCATGGACCGGTTTTCCCGGTAATCCGTATTTGAG (site TCCCTTCCTCT)” here?
A: 0.0101

Q: Which “recombinant UMI read abundance (log10)” value does the source give for “GTCTGACCATGGACCGGTTTTCCCGGTAATCCGTATTTGAG (site CAGGCTGCTTA)” here?
A: 0.0145

Q: Which “recombinant UMI read abundance (log10)” value does the source give for “AGTGGGTCATGGACCGGTTTTCCCGGTAATCCGTATTTGCA (site AGTGGGTCTTG)” here?
A: 2.92

Q: Which “recombinant UMI read abundance (log10)” value does the source give for “CGGACATCATGGACCGGTTTTCCCGGTAATCCGTATTTGCT (site CGGACAACTAG)” here?
A: 0.552

Q: For “CTTGTTGCATGGACCGGTTTTCCCGGTAATCCGTATTTGGT (site CTTGTTGCTAC)”, which “recombinant UMI read abundance (log10)” value is on record?
A: 1.26

Q: Which “recombinant UMI read abundance (log10)” value does the source give for “TATTTGTCATGGACCGGTTTTCCCGGTAATCCGTATTTGTG (site TATTTGCCTCA)” here?
A: 0.0214

Q: Which “recombinant UMI read abundance (log10)” value does the source give for “GTGTGCACATGGACCGGTTTTCCCGGTAATCCGTATTTGTA (site GTCTGCACTTA)” here?
A: 0.0255

Q: With “CGATCGACATGGACCGGTTTTCCCGGTAATCCGTATTTGTT (site CGATCTACTAA)” as the sequence, how does the “recombinant UMI read abundance (log10)” value read?
A: 0.00746

Q: Which “recombinant UMI read abundance (log10)” value does the source give for “ACCCGCTCATGGACCGGTTTTCCCGGTAATCCGTATTTGCA (site ACCCGCTCTTG)” here?
A: 2.9

Q: Which “recombinant UMI read abundance (log10)” value does the source give for “ACACTTCCATGGACCGGTTTTCCCGGTAATCCGTATTTGAC (site ACACCTCCTGT)” here?
A: 1.29

Q: Which “recombinant UMI read abundance (log10)” value does the source give for “CAGTCTACATGGACCGGTTTTCCCGGTAATCCGTATTTGGG (site CAGTCGACTCC)” here?
A: 0.00653

Q: Which “recombinant UMI read abundance (log10)” value does the source give for “CGGGTTGCATGGACCGGTTTTCCCGGTAATCCGTATTTGAG (site CGGGTTGCTCT)” here?
A: 1.79

Q: With “CTCACTACATGGACCGGTTTTCCCGGTAATCCGTATTTGAG (site CTCGCTACTCT)” as the sequence, how does the “recombinant UMI read abundance (log10)” value read?
A: 0

Q: For “AACCGTCCATGGACCGGTTTTCCCGGTAATCCGTATTTGGT (site AACCGTCCTAG)”, which “recombinant UMI read abundance (log10)” value is on record?
A: 0.00368

Q: For “TAACAATCATGGACCGGTTTTCCCGGTAATCCGTATTTGTC (site TAACAATCTGA)”, which “recombinant UMI read abundance (log10)” value is on record?
A: 2.03

Q: For “TGATCATCATGGACCGGTTTTCCCGGTAATCCGTATTTGCT (site GGATCATCTAG)”, which “recombinant UMI read abundance (log10)” value is on record?
A: 1.02

Q: For “GTTGATGCATGGACCGGTTTTCCCGGTAATCCGTATTTGAC (site GTTGATGCTGT)”, which “recombinant UMI read abundance (log10)” value is on record?
A: 2.12

Q: Which “recombinant UMI read abundance (log10)” value does the source give for “CATTATGCATGGACCGGTTTTCCCGGTAATCCGTATTTGGA (site CATTATGCTTC)” here?
A: 1.07
